Measurements from US20200246277A1, “Composition For Alleviating, Preventing Or Treating Premenstrual Syndrome, Containing, As Active Ingredient, Pinitol, D-Chiro-Inositol Or Analog Compound Thereof” (DY NATURAL CO., LTD., priority 2015, published 2020).
“Also recorded” adds a separate entry of the source.

Tested on: premenstrual syndrome
Assay: Blind test with questionnaire survey: alleviating effect on premenstrual syndrome, once a day for eight weeks
Format: in vivo, women
Conditions: for share of group with somewhat or significant alleviation of the main symptoms of premenstrual syndrome: administration group of 600 mg, across main symptoms; for share of group that answered alleviation in the main symptoms / share of group that did not feel changes in the main symptoms of premenstrual syndrome: administration group of 1,200 mg or 2,400 mg; for alleviation, percentage / alleviation, the number of people / complete alleviation, percentage / complete alleviation, the number of people / no change, percentage / no change, the number of people / significant alleviation, percentage / significant alleviation, the number of people: eight weeks; for effect on the main symptoms of premenstrual syndrome (dysmenorrhea, period of dysmenorrhea, coldness of hands and feet), in words: daily dose of 600 mg, 1,200 mg, and 2,400 mg
Text: 1. Evaluation of Administration of Pinitol or D-Chiro-Inositol to Female Subject Pinitol and D-chiro-inositol were purchased from Biosearch Life (Camino de Purchil, 66. 18004 Granada, Spain). Selected as experiment subjects were 80 normal women of reproductive age, that is, 80 women at the age of 25-40 who had neither skipped three or more cycles of menstruation, nor been administered with a contraceptive pill, and nor received a psychiatric treatment. Of them, 40 persons were classified into four groups of 10 which were then administered respectively with a placebo free of pinitol and having no pharmaceutical effects and with pinitol at three different doses. Likewise, the remaining 40 persons were equally divided into one placebo group and three experimental groups to which D-chiro-inositol was administered at three different doses, respectively. A blind test was conducted in which the placebo and pinitol or D-chiro-inositol was administered once a day for eight weeks. Pinitol or D-chiro-inositol was administered at daily doses of 600 mg, 1,200 mg, and 2,400 mg for eight weeks. A survey was made of the experimental subjects before and after the clinical test of placebo and pinitol or D-chiro-inositol to evaluate the alleviating effect of pinitol or D-chiro-inositol on premenstrual syndrome. 2. Survey In the present disclosure, the questionnaire that experimental subjects had completed with respect to the severity of premenstrual syndrome were analyzed. The experimental subjects evaluated the placebo, pinitol, or D-chiro-inositol for a pharmacological effect on premenstrual syndrome on the basis of four grades: complete alleviation, significant alleviation, somewhat alleviation, and no change for dysmenorrhea, a period of dysmenorrhea, and coldness of hands and feet. [table]

[1] = administration group of 1,200 mg
[2] = administration group of 2,400 mg
[3] = coldness of hands and feet, 600 mg a day
[4] = coldness of hands and feet, 1,200 mg a day
[5] = coldness of hands and feet, 2,400 mg a day
[6] = period of dysmenorrhea, 600 mg a day
[7] = period of dysmenorrhea, 1,200 mg a day
[8] = period of dysmenorrhea, 2,400 mg a day

O[C@H]1[C@H](O)[C@H](O)[C@@H](O)[C@H](O)[C@H]1O [DCI, D-chiro-inositol]
share of group with somewhat or significant alleviation of the main symptoms of premenstrual syndrome: 50-60% | share of group with complete alleviation of the main symptoms [1]: ≥ 50% | share of group that answered alleviation in the main symptoms: 80-90% | share of group that did not feel changes in the main symptoms of premenstrual syndrome: 10% | share of group with complete alleviation of the main symptoms [2]: 70-80% | alleviation, percentage [3]: 30.0% | alleviation, the number of people [3]: 3 person | complete alleviation, percentage [3]: 0.0% | complete alleviation, the number of people [3]: 0 person | no change, percentage [3]: 50.0% | no change, the number of people [3]: 5 person | significant alleviation, percentage [3]: 20.0% | significant alleviation, the number of people [3]: 2 person | alleviation, percentage [4]: 20.0% | alleviation, the number of people [4]: 2 person | complete alleviation, percentage [4]: 50.0% | complete alleviation, the number of people [4]: 5 person | no change, percentage [4]: 10.0% | no change, the number of people [4]: 1 person | significant alleviation, percentage [4]: 20.0% | significant alleviation, the number of people [4]: 2 person | alleviation, percentage [5]: 0.0% | alleviation, the number of people [5]: 0 person | complete alleviation, percentage [5]: 80.0% | complete alleviation, the number of people [5]: 8 person | no change, percentage [5]: 10.0% | no change, the number of people [5]: 1 person | significant alleviation, percentage [5]: 10.0% | significant alleviation, the number of people [5]: 1 person | effect on the main symptoms of premenstrual syndrome (dysmenorrhea, period of dysmenorrhea, coldness of hands and feet), in words: Significant reductions; also recorded: significantly alleviating | alleviation, percentage (dysmenorrhea, 600 mg a day): 20.0% | alleviation, the number of people (dysmenorrhea, 600 mg a day): 2 person | complete alleviation, percentage (dysmenorrhea, 600 mg a day): 0.0% | complete alleviation, the number of people (dysmenorrhea, 600 mg a day): 0 person | no change, percentage (dysmenorrhea, 600 mg a day): 40.0% | no change, the number of people (dysmenorrhea, 600 mg a day): 4 person | significant alleviation, percentage (dysmenorrhea, 600 mg a day): 40.0% | significant alleviation, the number of people (dysmenorrhea, 600 mg a day): 4 person | alleviation, percentage (dysmenorrhea, 1,200 mg a day): 20.0% | alleviation, the number of people (dysmenorrhea, 1,200 mg a day): 2 person | complete alleviation, percentage (dysmenorrhea, 1,200 mg a day): 50.0% | complete alleviation, the number of people (dysmenorrhea, 1,200 mg a day): 5 person | no change, percentage (dysmenorrhea, 1,200 mg a day): 0.0% | no change, the number of people (dysmenorrhea, 1,200 mg a day): 0 person | significant alleviation, percentage (dysmenorrhea, 1,200 mg a day): 30.0% | significant alleviation, the number of people (dysmenorrhea, 1,200 mg a day): 3 person | alleviation, percentage (dysmenorrhea, 2,400 mg a day): 0.0% | alleviation, the number of people (dysmenorrhea, 2,400 mg a day): 0 person | complete alleviation, percentage (dysmenorrhea, 2,400 mg a day): 90.0% | complete alleviation, the number of people (dysmenorrhea, 2,400 mg a day): 9 person | no change, percentage (dysmenorrhea, 2,400 mg a day): 0.0% | no change, the number of people (dysmenorrhea, 2,400 mg a day): 0 person | significant alleviation, percentage (dysmenorrhea, 2,400 mg a day): 10.0% | significant alleviation, the number of people (dysmenorrhea, 2,400 mg a day): 1 person | alleviation, percentage [6]: 20.0% | alleviation, the number of people [6]: 2 person | complete alleviation, percentage [6]: 0.0% | complete alleviation, the number of people [6]: 0 person | no change, percentage [6]: 50.0% | no change, the number of people [6]: 5 person | significant alleviation, percentage [6]: 30.0% | significant alleviation, the number of people [6]: 3 person | alleviation, percentage [7]: 10.0% | alleviation, the number of people [7]: 1 person | complete alleviation, percentage [7]: 60.0% | complete alleviation, the number of people [7]: 6 person | no change, percentage [7]: 10.0% | no change, the number of people [7]: 1 person | significant alleviation, percentage [7]: 20.0% | significant alleviation, the number of people [7]: 2 person | alleviation, percentage [8]: 0.0% | alleviation, the number of people [8]: 0 person | complete alleviation, percentage [8]: 80.0% | complete alleviation, the number of people [8]: 8 person | no change, percentage [8]: 0.0% | no change, the number of people [8]: 0 person | significant alleviation, percentage [8]: 20.0% | significant alleviation, the number of people [8]: 2 person

CO[C@H]1[C@H](O)[C@@H](O)[C@@H](O)[C@H](O)[C@@H]1O [Pinitol, pinitol]
share of group with somewhat or significant alleviation of the main symptoms of premenstrual syndrome: 50-60% | share of group with complete alleviation of the main symptoms [1]: ≥ 50% | share of group that answered alleviation in the main symptoms: 80-90% | share of group that did not feel changes in the main symptoms of premenstrual syndrome: 10% | share of group with complete alleviation of the main symptoms [2]: 70-80% | alleviation, percentage [3]: 40.0% | alleviation, the number of people [3]: 4 person | complete alleviation, percentage [3]: 0.0% | complete alleviation, the number of people [3]: 0 person | no change, percentage [3]: 50.0% | no change, the number of people [3]: 5 person | significant alleviation, percentage [3]: 10.0% | significant alleviation, the number of people [3]: 1 person | alleviation, percentage [4]: 10.0% | alleviation, the number of people [4]: 1 person | complete alleviation, percentage [4]: 40.0% | complete alleviation, the number of people [4]: 4 person | no change, percentage [4]: 20.0% | no change, the number of people [4]: 2 person | significant alleviation, percentage [4]: 30.0% | significant alleviation, the number of people [4]: 3 person | alleviation, percentage [5]: 10.0% | alleviation, the number of people [5]: 1 person | complete alleviation, percentage [5]: 70.0% | complete alleviation, the number of people [5]: 7 person | no change, percentage [5]: 10.0% | no change, the number of people [5]: 1 person | significant alleviation, percentage [5]: 10.0% | significant alleviation, the number of people [5]: 1 person | effect on the main symptoms of premenstrual syndrome (dysmenorrhea, period of dysmenorrhea, coldness of hands and feet), in words: Significant reductions; also recorded: significantly alleviating | alleviation, percentage (dysmenorrhea, 600 mg a day): 30.0% | alleviation, the number of people (dysmenorrhea, 600 mg a day): 3 person | complete alleviation, percentage (dysmenorrhea, 600 mg a day): 0.0% | complete alleviation, the number of people (dysmenorrhea, 600 mg a day): 0 person | no change, percentage (dysmenorrhea, 600 mg a day): 40.0% | no change, the number of people (dysmenorrhea, 600 mg a day): 4 person | significant alleviation, percentage (dysmenorrhea, 600 mg a day): 30.0% | significant alleviation, the number of people (dysmenorrhea, 600 mg a day): 3 person | alleviation, percentage (dysmenorrhea, 1,200 mg a day): 10.0% | alleviation, the number of people (dysmenorrhea, 1,200 mg a day): 1 person | complete alleviation, percentage (dysmenorrhea, 1,200 mg a day): 60.0% | complete alleviation, the number of people (dysmenorrhea, 1,200 mg a day): 6 person | no change, percentage (dysmenorrhea, 1,200 mg a day): 10.0% | no change, the number of people (dysmenorrhea, 1,200 mg a day): 1 person | significant alleviation, percentage (dysmenorrhea, 1,200 mg a day): 20.0% | significant alleviation, the number of people (dysmenorrhea, 1,200 mg a day): 2 person | alleviation, percentage (dysmenorrhea, 2,400 mg a day): 0.0% | alleviation, the number of people (dysmenorrhea, 2,400 mg a day): 0 person | complete alleviation, percentage (dysmenorrhea, 2,400 mg a day): 80.0% | complete alleviation, the number of people (dysmenorrhea, 2,400 mg a day): 8 person | no change, percentage (dysmenorrhea, 2,400 mg a day): 0.0% | no change, the number of people (dysmenorrhea, 2,400 mg a day): 0 person | significant alleviation, percentage (dysmenorrhea, 2,400 mg a day): 20.0% | significant alleviation, the number of people (dysmenorrhea, 2,400 mg a day): 2 person | alleviation, percentage [6]: 20.0% | alleviation, the number of people [6]: 2 person | complete alleviation, percentage [6]: 0.0% | complete alleviation, the number of people [6]: 0 person | no change, percentage [6]: 50.0% | no change, the number of people [6]: 5 person | significant alleviation, percentage [6]: 30.0% | significant alleviation, the number of people [6]: 3 person | alleviation, percentage [7]: 20.0% | alleviation, the number of people [7]: 2 person | complete alleviation, percentage [7]: 50.0% | complete alleviation, the number of people [7]: 5 person | no change, percentage [7]: 10.0% | no change, the number of people [7]: 1 person | significant alleviation, percentage [7]: 20.0% | significant alleviation, the number of people [7]: 2 person | alleviation, percentage [8]: 0.0% | alleviation, the number of people [8]: 0 person | complete alleviation, percentage [8]: 80.0% | complete alleviation, the number of people [8]: 8 person | no change, percentage [8]: 0.0% | no change, the number of people [8]: 0 person | significant alleviation, percentage [8]: 20.0% | significant alleviation, the number of people [8]: 2 person
